# Assay results published in patent US10336732B2, “1-heterocyclyl isochromanyl compounds and analogs for treating CNS disorders” (Sunovion Pharmaceuticals Inc., priority 2015, dated 2019).
# Test system: mice
# Test: Neuropharmacological assay (SmartCube), behavioral signature of compound-treated mice
# Type: in vivo
# Conditions: i.p. 15 min before behavioral test, most efficacious dose(s) of 3 doses
# Outline: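 Mice received compound i.p. in NMP/PEG/propylene glycol vehicle at 3 doses, 15 min before testing. Video-captured behavior was algorithmically compared with a reference-drug signature database.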
Structure (SMILES),AD: ADHD (probability that behavioral signature matches class),AG: analgesic (probability that behavioral signature matches class),AX: anxiolytic (probability that behavioral signature matches class),CE: cognitive enhancer (probability that behavioral signature matches class),DP: anti-depressant (probability that behavioral signature matches class),HA: hallucinogen (probability that behavioral signature matches class),MS: mood stabilizer (probability that behavioral signature matches class),PS: anti-psychotic (probability that behavioral signature matches class),SD: sedative hypnotic (probability that behavioral signature matches class),UN: uncharacterized CNS activity (probability that behavioral signature matches class)
"Fc1ccc2c(c1)[C@@H]([C@@H]1CCN1)OCC2 [Compound I-85, (S)-2-((S)-7-fluoroisochroman-1-yl)azetidine]",+ (LOQ ≤ + <5%),+ (LOQ ≤ + <5%),++ (5% ≤ ++ <25%),++ (5% ≤ ++ <25%),++ (5% ≤ ++ <25%),+ (LOQ ≤ + <5%),+ (LOQ ≤ + <5%),+++ (25% ≤ +++ <50%),++ (5% ≤ ++ <25%),++ (5% ≤ ++ <25%)
"c1ccc2c(c1)CCO[C@@H]2[C@@H]1CCCN1 [Compound I-17, (S)-2-((S)-isochroman-1-yl)pyrrolidine]",+ (LOQ ≤ + <5%),+ (LOQ ≤ + <5%),++ (5% ≤ ++ <25%),++ (5% ≤ ++ <25%),+++ (25% ≤ +++ <50%),+ (LOQ ≤ + <5%),+ (LOQ ≤ + <5%),++ (5% ≤ ++ <25%),+ (LOQ ≤ + <5%),+ (LOQ ≤ + <5%)
"Cc1cccc2c1[C@H]([C@@H]1CCCN1)OCCC2 [Compound I-102, (S)-2-((R)-9-methyl-1,3,4,5-tetrahydrobenzo[c]oxepin-1-yl)pyrrolidine]",+ (LOQ ≤ + <5%),++ (5% ≤ ++ <25%),+++ (25% ≤ +++ <50%),++ (5% ≤ ++ <25%),++ (5% ≤ ++ <25%),+ (LOQ ≤ + <5%),++ (5% ≤ ++ <25%),++ (5% ≤ ++ <25%),+ (LOQ ≤ + <5%),+ (LOQ ≤ + <5%)
"c1ccc2c(c1)CCO[C@H]2[C@@H]1CCCCN1 [Compound I-72, (S)-2-((R)-isochroman-1-yl)piperidine]",+ (LOQ ≤ + <5%),++ (5% ≤ ++ <25%),++ (5% ≤ ++ <25%),+ (LOQ ≤ + <5%),+ (LOQ ≤ + <5%),+ (LOQ ≤ + <5%),+ (LOQ ≤ + <5%),+ (LOQ ≤ + <5%),+ (LOQ ≤ + <5%),+++ (25% ≤ +++ <50%)
"Fc1ccc2c(c1)CO[C@@H]2[C@@H]1CCN1 [Compound I-126, (S)-2-((S)-5-fluoro-1,3-dihydroisobenzofuran-1-yl)azetidine]",+ (LOQ ≤ + <5%),++ (5% ≤ ++ <25%),++ (5% ≤ ++ <25%),++ (5% ≤ ++ <25%),+++ (25% ≤ +++ <50%),+ (LOQ ≤ + <5%),+ (LOQ ≤ + <5%),+++ (25% ≤ +++ <50%),++ (5% ≤ ++ <25%),++ (5% ≤ ++ <25%)
"N#Cc1ccc2c(c1)CCO[C@@H]2[C@@H]1CCCN1 [Compound I-43, (S)-1-((S)-pyrrolidin-2-yl)isochroman-6-carbonitrile]",+ (LOQ ≤ + <5%),++ (5% ≤ ++ <25%),+++ (25% ≤ +++ <50%),++ (5% ≤ ++ <25%),++ (5% ≤ ++ <25%),+ (LOQ ≤ + <5%),+ (LOQ ≤ + <5%),++ (5% ≤ ++ <25%),+ (LOQ ≤ + <5%),+ (LOQ ≤ + <5%)
"Fc1ccc2c(c1)CO[C@H]2[C@H]1CCCN1 [Compound I-121, (R)-2-((R)-5-fluoro-1,3-dihydroisobenzofuran-1-yl)pyrrolidine]",+ (LOQ ≤ + <5%),+++ (25% ≤ +++ <50%),+++ (25% ≤ +++ <50%),++ (5% ≤ ++ <25%),++ (5% ≤ ++ <25%),+ (LOQ ≤ + <5%),+ (LOQ ≤ + <5%),++ (5% ≤ ++ <25%),++ (5% ≤ ++ <25%),++ (5% ≤ ++ <25%)
"Cc1cccc2c1[C@@H]([C@H]1CCCN1)OCC2 [Compound I-24, (R)-2-((S)-8-methylisochroman-1-yl)pyrrolidine]",+ (LOQ ≤ + <5%),++ (5% ≤ ++ <25%),++ (5% ≤ ++ <25%),++ (5% ≤ ++ <25%),+++ (25% ≤ +++ <50%),+ (LOQ ≤ + <5%),++ (5% ≤ ++ <25%),++ (5% ≤ ++ <25%),++ (5% ≤ ++ <25%),+ (LOQ ≤ + <5%)
"N#Cc1ccc2c(c1)[C@H]([C@H]1CCCN1)OCC2 [Compound I-41, (R)-1-((R)-pyrrolidin-2-yl)isochroman-7-carbonitrile]",+ (LOQ ≤ + <5%),++ (5% ≤ ++ <25%),++ (5% ≤ ++ <25%),++ (5% ≤ ++ <25%),+++ (25% ≤ +++ <50%),+ (LOQ ≤ + <5%),++ (5% ≤ ++ <25%),++ (5% ≤ ++ <25%),++ (5% ≤ ++ <25%),+ (LOQ ≤ + <5%)
"c1ccc2c(c1)CCO[C@@H]2[C@H]1CCN1 [Compound I-81, (R)-2-((S)-isochroman-1-yl)azetidine]",+ (LOQ ≤ + <5%),++ (5% ≤ ++ <25%),+++ (25% ≤ +++ <50%),++ (5% ≤ ++ <25%),++ (5% ≤ ++ <25%),+ (LOQ ≤ + <5%),+ (LOQ ≤ + <5%),++ (5% ≤ ++ <25%),+++ (25% ≤ +++ <50%),+ (LOQ ≤ + <5%)
"Fc1cccc2c1CCO[C@H]2[C@@H]1CCCN1 [Compound I-13, (S)-2-((R)-5-fluoroisochroman-1-yl)pyrrolidine]",+ (LOQ ≤ + <5%),++ (5% ≤ ++ <25%),++ (5% ≤ ++ <25%),++ (5% ≤ ++ <25%),+++ (25% ≤ +++ <50%),+ (LOQ ≤ + <5%),++ (5% ≤ ++ <25%),++++ (50% ≤ ++++),+ (LOQ ≤ + <5%),++ (5% ≤ ++ <25%)

# Same assay, conditions: i.p. 15 min before behavioral test, most efficacious dose(s) of 3 doses
row,Structure (SMILES),XG: anxiogenic (probability that behavioral signature matches class)
1,"Fc1ccc2c(c1)[C@@H]([C@@H]1CCN1)OCC2 [Compound I-85, (S)-2-((S)-7-fluoroisochroman-1-yl)azetidine]",+ (LOQ ≤ + <5%)
2,"c1ccc2c(c1)CCO[C@@H]2[C@@H]1CCCN1 [Compound I-17, (S)-2-((S)-isochroman-1-yl)pyrrolidine]",+ (LOQ ≤ + <5%)
3,"Cc1cccc2c1[C@H]([C@@H]1CCCN1)OCCC2 [Compound I-102, (S)-2-((R)-9-methyl-1,3,4,5-tetrahydrobenzo[c]oxepin-1-yl)pyrrolidine]",+ (LOQ ≤ + <5%)
4,"c1ccc2c(c1)CCO[C@H]2[C@@H]1CCCCN1 [Compound I-72, (S)-2-((R)-isochroman-1-yl)piperidine]",++ (5% ≤ ++ <25%)
5,"Fc1ccc2c(c1)CO[C@@H]2[C@@H]1CCN1 [Compound I-126, (S)-2-((S)-5-fluoro-1,3-dihydroisobenzofuran-1-yl)azetidine]",+ (LOQ ≤ + <5%)
6,"N#Cc1ccc2c(c1)CCO[C@@H]2[C@@H]1CCCN1 [Compound I-43, (S)-1-((S)-pyrrolidin-2-yl)isochroman-6-carbonitrile]",+ (LOQ ≤ + <5%)
7,"Fc1ccc2c(c1)CO[C@H]2[C@H]1CCCN1 [Compound I-121, (R)-2-((R)-5-fluoro-1,3-dihydroisobenzofuran-1-yl)pyrrolidine]",+ (LOQ ≤ + <5%)
8,"Cc1cccc2c1[C@@H]([C@H]1CCCN1)OCC2 [Compound I-24, (R)-2-((S)-8-methylisochroman-1-yl)pyrrolidine]",+ (LOQ ≤ + <5%)
9,"N#Cc1ccc2c(c1)[C@H]([C@H]1CCCN1)OCC2 [Compound I-41, (R)-1-((R)-pyrrolidin-2-yl)isochroman-7-carbonitrile]",+ (LOQ ≤ + <5%)
10,"c1ccc2c(c1)CCO[C@@H]2[C@H]1CCN1 [Compound I-81, (R)-2-((S)-isochroman-1-yl)azetidine]",+ (LOQ ≤ + <5%)
11,"Fc1cccc2c1CCO[C@H]2[C@@H]1CCCN1 [Compound I-13, (S)-2-((R)-5-fluoroisochroman-1-yl)pyrrolidine]",+ (LOQ ≤ + <5%)
